This experiment deals with His6-TEV-PDGFRβ (557-1016) (Homo sapiens (Human), UniProt P09619). Nature of the experiment: PDGFRβ HTRF Assay. The format is biochemical. Particulars: read-out: PDGFR HTRF IC50. The procedure, abridged: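 HTRF KinEASE-TK readout (665/620 nm ratio) of TK-biotin substrate phosphorylation by His-tagged PDGFRβ kinase domain. Enzyme and inhibitor preincubated 30 min, then ATP/substrate added for 3 h at room temperature before 60 min EDTA quench/detection.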
Chain of His6-TEV-PDGFRβ (557-1016) (P09619 557-1016): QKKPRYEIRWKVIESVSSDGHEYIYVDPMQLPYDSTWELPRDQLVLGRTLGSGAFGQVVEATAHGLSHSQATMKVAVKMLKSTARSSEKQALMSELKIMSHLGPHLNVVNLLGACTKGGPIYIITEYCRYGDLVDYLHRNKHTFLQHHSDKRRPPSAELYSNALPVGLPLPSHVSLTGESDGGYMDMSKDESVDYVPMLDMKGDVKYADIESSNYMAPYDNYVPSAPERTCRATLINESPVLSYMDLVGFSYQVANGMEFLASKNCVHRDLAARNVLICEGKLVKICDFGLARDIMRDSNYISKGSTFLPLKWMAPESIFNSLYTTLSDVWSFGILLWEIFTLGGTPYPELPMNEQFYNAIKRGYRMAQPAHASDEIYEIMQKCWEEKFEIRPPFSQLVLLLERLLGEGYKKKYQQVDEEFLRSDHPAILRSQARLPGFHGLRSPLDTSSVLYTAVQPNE

Take `COc1ncccc1-c1cn2ncc(C(=O)Nc3cc(NC(=O)C[C@@H]4CCCN4C(C)C)cnc3C)c2s1` [Example 323, (S)—N-(5-(2-(1-isopropylpyrrolidin-2-yl)acetamido)-2-methylpyridin-3-yl)-2-(2-methoxypyridin-3-yl)pyrazolo[5,1-b]thiazole-7-carboxamide]: the IC50 is 0.2 nM. `COc1ncccc1-c1cn2ncc(C(=O)Nc3cc(NC(=O)CN4CCC5(CC5)C4)cnc3C)c2s1` [Example 324, N-(5-(2-(5-azaspiro[2.4]heptan-5-yl)acetamido)-2-methylpyridin-3-yl)-2-(2-methoxypyridin-3-yl)pyrazolo[5,1-b]thiazole-7-carboxamide]: the IC50 is 0.1 nM. On to `COCCn1cc(-c2cn3ncc(C(=O)Nc4cc(NC(=O)CN5CCC[C@@H]5C)cnc4C)c3s2)cn1` [Example 325, (S)-2-(1-(2-methoxyethyl)-1H-pyrazol-4-yl)-N-(2-methyl-5-(2-(2-methylpyrrolidin-1-yl)acetamido)pyridin-3-yl)pyrazolo[5,1-b]thiazole-7-carboxamide], for which the IC50 came to 0.8 nM. Take `COCCn1cc(-c2cn3ncc(C(=O)Nc4cc(NC(=O)CN5CCC6(CC6)C5)cnc4C)c3s2)cn1` [Example 326, N-(5-(2-(5-azaspiro[2.4]heptan-5-yl)acetamido)-2-methylpyridin-3-yl)-2-(1-(2-methoxyethyl)-1H-pyrazol-4-yl)pyrazolo[5,1-b]thiazole-7-carboxamide]: the IC50 came out at 0.4 nM. Under `COCCn1cc(-c2cn3ncc(C(=O)Nc4cc(NC(=O)CN5CCCC5(C)C)cnc4C)c3s2)cn1` [Example 329, N-(5-(2-(2,2-dimethylpyrrolidin-1-yl)acetamido)-2-methylpyridin-3-yl)-2-(1-(2-methoxyethyl)-1H-pyrazol-4-yl)pyrazolo[5,1-b]thiazole-7-carboxamide] stands 0.5 nM; under `COCCn1cc(-c2cn3ncc(C(=O)Nc4cc(NC(=O)CN5CCC[C@H]5C)cnc4C)c3s2)cn1` [Example 330, (R)-2-(1-(2-methoxyethyl)-1H-pyrazol-4-yl)-N-(2-methyl-5-(2-(2-methylpyrrolidin-1-yl)acetamido)pyridin-3-yl)pyrazolo[5,1-b]thiazole-7-carboxamide], 0.6 nM.

Broadly, the IC50 is the midpoint of a concentration-inhibition curve.

The values are drawn from patent US20240109917A1 (ACTELION PHARMACEUTICALS LTD, priority 2020, published 2024).
